Experimental findings from patent publication US20260209247A1, “Substituted Tricyclic Compounds” (Lupin Limited, priority 2019, published 2026) are described below.

Assay [1] deals with T1, nucleotide exchange on hKRASG12C mediated by hSOS1 (Homo sapiens, UniProt Q07889).
T1 construct: HIS-hSOS1, 564-1049aa mediated GTP loading onto GST-hKRASG12C; His (N); made in house
T1 sequence (Q07889 564-1049): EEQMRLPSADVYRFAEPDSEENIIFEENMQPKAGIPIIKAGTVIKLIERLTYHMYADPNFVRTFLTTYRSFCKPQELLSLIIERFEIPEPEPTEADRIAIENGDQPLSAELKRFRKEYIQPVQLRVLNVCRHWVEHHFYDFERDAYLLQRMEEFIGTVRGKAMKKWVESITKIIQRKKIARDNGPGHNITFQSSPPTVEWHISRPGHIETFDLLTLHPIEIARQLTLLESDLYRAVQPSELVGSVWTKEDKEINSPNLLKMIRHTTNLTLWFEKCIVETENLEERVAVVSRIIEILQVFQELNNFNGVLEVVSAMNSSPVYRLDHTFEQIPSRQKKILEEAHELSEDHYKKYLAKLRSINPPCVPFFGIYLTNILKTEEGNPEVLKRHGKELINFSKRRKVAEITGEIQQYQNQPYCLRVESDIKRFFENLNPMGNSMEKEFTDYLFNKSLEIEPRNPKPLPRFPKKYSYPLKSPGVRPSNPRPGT
Briefly: Guanine nucleotide exchange assay (GNEA, HTRF). Format: biochemical. Conditions: HIS-hSOS1 564-1049aa mediated GTP loading onto GST-hKRASG12C 1-169aa, read-out: Guanine nucleotide exchange inhibition IC50. The procedure: Example-154: Guanine nucleotide exchange assay (GNEA) GNEA assay was conducted to evaluate the effects of compounds on the nucleotide exchange on hKRASG12C mediated by hSOS1. Inhibitory effect of compounds on HIS-hSOS1, 564-1049aa mediated GTP loading onto GST-hKRASG12C, 1-169aa both expressed and purified in-house was assessed using HTRF detection technology in biochemical assay. Compounds were pre-incubated with hSOS1 working solution containing 10-50 nM hSOS1 and 200 nM EDA-GTP-DY-647P1 (Custom manufactured, Jena Biosciences) per well of a 384 well plate (Perkin Elmer, Cat #6007290) for 10 min at 20° C. in the assay buffer containing 10 mM HEPES, pH 7.4, 150 mM NaCl, 5 mM MgCl2, 1 mM DTT, 0.05% BSA fraction V and 0.0025% Igepal. Reaction was initiated by adding working solution of hKRASG12C containing 25-125 nM hKRASG12C and MAb Anti-GST-Tb (#61GSTTLA, Cisbio BioAssays) in assay buffer. Total assay volume was 15 μL. Reaction was continued for 30-60 min at 20° C. HTRF signal was recorded in PHERAStar microplate reader. Ratio of signal obtained at 665 nm and 620 nm was used to compute the percent inhibition of compound as follows.
In general terms: Time-resolved FRET reads energy transfer from a long-lived donor to a nearby acceptor.

For assay [2], the target named is T2, protein-protein interaction between hSOS1 and hKRASG12C (Homo sapiens, UniProt Q07889).
T2 construct: GST-hSOS1, 564-1049aa expressed and purified in-house
T2 sequence (Q07889 564-1049): T1 sequence (Q07889 564-1049)
Briefly: KRAS-SOS1 interaction assay (HTRF). Format: binding. Conditions: GST-hSOS1 564-1049aa, HIS-hKRASG12C, read-out: KRAS-SOS1 Interaction inhibition IC50. The procedure: Interaction assay was conducted to evaluate the ability of the compounds to disrupt the protein-protein interactions between hSOS1 and hKRASG12C. Inhibitory effect of compounds on GST-hSOS1, 564-1049aa expressed and purified in-house and HIS-hKRASG12C (R06-32DH, SignalChem) interaction was assessed using HTRF detection technology in biochemical assay. Compounds were pre-incubated with 10-50 nM working solution of hSOS1 per well of a 384 well plate (Perkin Elmer, Cat #6007290) for 10 min at 20° C. in the assay buffer containing 5 mM HEPES, pH 7.4, 150 mM NaCl, 10 mM EDTA, 1 mM DTT, 0.05% BSA fraction V and 0.0025% Igepal. Reaction was initiated by adding 100-300 nM working solution of hKRASG12C in assay buffer. Total assay volume was 15 μL. Reaction was continued for 30-60 min at 20° C. Then detection solution containing MAb Anti-GST-d2 (#61GSTDLA, Cisbio BioAssays) and MAb Anti-HIS-Tb (#61HISTLA, Cisbio BioAssays), all prepared in HTRF detection buffer (#61DB10RDF, Cisbio BioAssays) was added and further incubated for 30-60 min at 20° C. HTRF signal was recorded in PHERAStar microplate reader. Ratio of signal obtained at 665 nm and 620 nm was used to compute the percent inhibition of compound utilizing the following formula: […]

For assay [3], the system named is pERK after EGF stimulation in DLD1 cells. Briefly: ERK phosphorylation assay (alphascreen pERK). Format: cell-based. Conditions: Homo sapiens, DLD-1, 2 h compound, 200 ng/ml hEGF for 5 minutes, read-out: ERK phosphorylation inhibition IC50. The essentials: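 DLD1 cells pretreated with test compounds for 2 h, then stimulated with 200 ng/ml hEGF for 5 min. Lysates assayed by AlphaScreen SureFire for ERK1/2 p-T202/Y204, read after 2 h at 25–28 °C. % inhibition relative to the stimulated-minus-unstimulated vehicle window.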
In general terms: Bead proximity is the source of the signal in Alpha formats.

By IC50 is commonly meant the point on the concentration scale where inhibition reaches its midpoint. With `Cc1nc(N[C@H](C)c2cccc(C(F)(F)C(C)(C)O)c2F)c2cc3c(cc2n1)OC(C)C(=O)N3C` (single isomer, unassigned) [Compound 31b], the 50% inhibitory concentration (IC50) in assay [1] lay in the range of 1 to 30 nM; in assay [2] it was 1 to 10 nM; in assay [3], 1 to 200 nM.

For `Cc1nc(N[C@H](C)c2cccc(C(F)(F)C(C)(C)O)c2F)c2cc3c(cc2n1)OC(C(C)C)C(=O)N3C` (single isomer, unassigned) [Compound 32b], the values for the 50% inhibitory concentration (IC50) in assay [1], in assay [2] and in assay [3] were 1 to 30 nM, 1 to 10 nM and 1 to 200 nM, respectively.

In the case of `Cc1nc(N[C@H](C)c2cccc(C(F)(F)CO)c2F)c2cc3c(cc2n1)OC(C)CN3C` (single isomer, unassigned) [Compound 36b], the results for the IC50 in assay [1], in assay [2] and in assay [3] were 1 to 30 nM, 1 to 10 nM and 1 to 200 nM, respectively.

Take `COCC(C)(O)C(F)(F)c1cccc([C@@H](C)Nc2nc(C)nc3cc4c(cc23)N(C)C(=O)C(C)(C)O4)c1F` (single isomer, unassigned) [Compound 53b]: the IC50 was 1 to 30 nM in assay [1], 11 to 25 nM in assay [2] and 1 to 200 nM in assay [3].

Consider `Cc1nc(NC(C)c2cccc(C(F)(F)C(C)(C)O)c2)c2cc3c(cc2n1)C(C)(C)C(=O)N3C` (single isomer, unassigned) [Compound 73, (R/S)-4-((1-(3-(1,1-difluoro-2-hydroxy-2-methylpropyl)phenyl)ethyl)amino)-2,6,8,8-tetramethyl-6,8-dihydro-7H-pyrrolo[2,3-g]quinazolin-7-one], for which the IC50 is 1 to 30 nM in assay [1], 1 to 10 nM in assay [2] and 1 to 200 nM in assay [3].

Consider `Cc1nc(N[C@H](C)c2cccc(C(F)(F)C(C)(O)CO)c2F)c2cc3c(cc2n1)C(C)(C)C(=O)N3C` (single isomer, unassigned) [Compound 76a], for which the IC50 in assay [1] was in the range of 1 to 30 nM; in assay [2] it was 1 to 10 nM; in assay [3] it was 1 to 200 nM.

With `CC[C@]1(C)C(=O)N(C)c2cc3nc(C)nc(N[C@H](C)c4cccc(C(F)(F)C(C)(C)O)c4F)c3cc21` (single isomer, unassigned) [Compound 93a], the concentration for half-maximal inhibition (IC50) in assay [1] was in the range of 31 to 130 nM; in assay [2] it was 1 to 10 nM; in assay [3] it was 1 to 200 nM.

For the compound `CCC1(C)C(=O)N(C)c2cc3nc(C)nc(N[C@H](C)c4cccc(C(F)(F)C(C)(C)O)c4F)c3cc21` (single isomer, unassigned) [Compound 93b], the 50% inhibitory concentration (IC50) in assay [1] lay in the range of 31 to 130 nM; in assay [2] it was 1 to 10 nM; in assay [3], 1 to 200 nM.

Regarding `COCC1(C)C(=O)N(C)c2cc3nc(C)nc(N[C@H](C)c4cccc(C(F)(F)C(C)(C)O)c4F)c3cc21` (single isomer, unassigned) [Compound 94a], the 50% inhibitory concentration (IC50) in assay [1] fell in the range of 1 to 30 nM; in assay [2], 1 to 10 nM; in assay [3], 1 to 200 nM.

For `COCC1(C)C(=O)N(C)c2cc3c(N[C@H](C)c4cccc(C(F)(F)C(C)(C)O)c4F)nc(C)nc3cc21` (single isomer, unassigned) [Compound 98a], the concentration for half-maximal inhibition (IC50) in assay [1] lay within 1 to 30 nM; in assay [2], 1 to 10 nM; in assay [3], 1 to 200 nM.

`CO[C@]1(C)C(=O)N(C)c2cc3c(N[C@H](C)c4cccc(C(F)(F)C(C)(C)O)c4F)nc(C)nc3cc21` (single isomer, unassigned) [Compound 101a]: the concentration for half-maximal inhibition (IC50) was 31 to 130 nM in assay [1], 1 to 10 nM in assay [2] and 1 to 200 nM in assay [3].

Consider `CCOC1(C)C(=O)N(C)c2cc3c(N[C@H](C)c4cccc(C(F)(F)C(C)(C)O)c4F)nc(C)nc3cc21` (single isomer, unassigned) [Compound 121a], for which the IC50 in assay [1] fell in the range of 31 to 130 nM; in assay [2], 1 to 10 nM; in assay [3], 1 to 200 nM.

Turning to `COCC[C@]1(C)C(=O)N(C)c2cc3c(N[C@H](C)c4cccc(C(F)(F)C(C)(C)O)c4F)nc(C)nc3cc21` (single isomer, unassigned) [Compound 123a], the IC50 was in the range of 1 to 30 nM in assay [1], 1 to 10 nM in assay [2] and 1 to 200 nM in assay [3].

On to `COC[C@](C)(O)C(F)(F)c1cccc([C@@H](C)Nc2nc(C)nc3cc4c(cc23)N(C)C(=O)C4(C)C)c1F` (single isomer, unassigned) [Compound 127b], for which the IC50 fell in the range of 1 to 30 nM in assay [1], 1 to 10 nM in assay [2] and 1 to 200 nM in assay [3].

For the compound `Cc1nc(N[C@H](C)c2cccc(C(F)(F)C(C)(C)O)c2F)c2cc3c(cc2n1)[C@]1(CCOC1)C(=O)N3C` (single isomer, unassigned) [Compound 128a], the IC50 in assay [1] was 1 to 30 nM; in assay [2], 1 to 10 nM; in assay [3] it was 1 to 200 nM.

`Cc1nc(N[C@H](C)c2cccc(C(F)(F)C(C)(C)O)c2F)c2cc3c(cc2n1)C1(CCOC1)C(=O)N3C` (single isomer, unassigned) [Compound 128b]: the IC50 was in the range of 31 to 130 nM in assay [1], 1 to 10 nM in assay [2] and 1 to 200 nM in assay [3].

As to `Cc1nc(N[C@H](C)c2cccc(C(F)(F)C(C)(O)CN(C)C)c2F)c2cc3c(cc2n1)C(C)(C)C(=O)N3C` (single isomer, unassigned) [Compound 129a], the concentration for half-maximal inhibition (IC50) in assay [1] was 1 to 30 nM; in assay [2], 1 to 10 nM; in assay [3] it was 1 to 200 nM.

As to `CNCC(C)(O)C(F)(F)c1cccc([C@@H](C)Nc2nc(C)nc3cc4c(cc23)N(C)C(=O)C4(C)C)c1F` (single isomer, unassigned) [Compound 130a], the IC50 in assay [1] was in the range of 1 to 30 nM; in assay [2], 1 to 10 nM; in assay [3], 1 to 200 nM.

Turning to `COCC[C@@]1(OC)C(=O)N(C)c2cc3c(N[C@H](C)c4cccc(C(F)(F)C(C)(C)O)c4F)nc(C)nc3cc21` (single isomer, unassigned) [Compound 132b], the concentration for half-maximal inhibition (IC50) in assay [1] is 1 to 30 nM; in assay [2], 1 to 10 nM; in assay [3], 1 to 200 nM.

In the case of `COC1(C)C(=O)N(C)c2cc3c(N[C@H](C)c4cccc(C(F)(F)C(C)(O)CN(C)C)c4F)nc(C)nc3cc21` (single isomer, unassigned) [Compound 135], the half-inhibitory concentration (IC50) in assay [1] lay within 1 to 30 nM; in assay [2], 1 to 10 nM; in assay [3], 1 to 200 nM.

`Cc1nc(N[C@H](C)c2cc(N)cc(C(F)(F)F)c2)c2cc3c(cc2n1)OCC(=O)N3C` [Compound 1, (R)-4-((1-(3-amino-5-(trifluoromethyl)phenyl)ethyl)amino)-2,6-dimethyl-6H-[1,4]oxazino[3,2-g]quinazolin-7(8H)-one]: the IC50 in assay [1] lay within 31 to 130 nM; in assay [2] it was 1 to 10 nM; in assay [3] it was 1 to 200 nM.

For `Cc1nc(N[C@H](C)c2cccc(C(F)(F)CO)c2F)c2cc3c(cc2n1)OCC(=O)N3C` [Compound 2, (R)-4-((1-(3-(1,1-difluoro-2-hydroxyethyl)-2-fluorophenyl)ethyl)amino)-2,6-dimethyl-6H-[1,4]oxazino[3,2-g]quinazolin-7(8H)-one], the concentration for half-maximal inhibition (IC50) lay in the range of 1 to 30 nM in assay [1], 1 to 10 nM in assay [2] and 1 to 200 nM in assay [3].
